Earlier results as cited in patent US20170007618A1, “SEROTONIN 2C RECEPTOR ANTAGONISTS TO PREVENT AND TREAT STRESS-RELATED TRAUMA DISORDERS” (Massachusetts Institute of Technology, priority 2015, published 2017).
Where a name gives a salt, the structure may show the parent alone.

Legend:
[1] = biological target: 5-HT2A receptors (Homo sapiens, UniProt P28223); details: 5-HT2C versus 5-HT2A
[2] = biological target: 5-HT2B receptors (Homo sapiens, UniProt P41595); details: 5-HT2C versus 5-HT2B
[3] = biological target: T1, cloned human 5-HT2C receptor (Homo sapiens, UniProt P28335)
T1 sequence (P28335 33-458): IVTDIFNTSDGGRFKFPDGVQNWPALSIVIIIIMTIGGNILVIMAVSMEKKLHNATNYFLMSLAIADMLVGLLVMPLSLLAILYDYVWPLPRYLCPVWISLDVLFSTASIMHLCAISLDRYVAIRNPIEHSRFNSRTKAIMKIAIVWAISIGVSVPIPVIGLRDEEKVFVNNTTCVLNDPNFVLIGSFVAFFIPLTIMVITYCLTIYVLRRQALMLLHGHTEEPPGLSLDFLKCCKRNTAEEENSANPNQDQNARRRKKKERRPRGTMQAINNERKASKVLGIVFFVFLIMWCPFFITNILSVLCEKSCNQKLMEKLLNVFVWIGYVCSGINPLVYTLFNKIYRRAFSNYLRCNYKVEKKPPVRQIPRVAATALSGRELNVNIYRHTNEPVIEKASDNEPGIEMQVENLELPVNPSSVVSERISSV

Chain of 5-HT2B receptors (P41595 whole entry): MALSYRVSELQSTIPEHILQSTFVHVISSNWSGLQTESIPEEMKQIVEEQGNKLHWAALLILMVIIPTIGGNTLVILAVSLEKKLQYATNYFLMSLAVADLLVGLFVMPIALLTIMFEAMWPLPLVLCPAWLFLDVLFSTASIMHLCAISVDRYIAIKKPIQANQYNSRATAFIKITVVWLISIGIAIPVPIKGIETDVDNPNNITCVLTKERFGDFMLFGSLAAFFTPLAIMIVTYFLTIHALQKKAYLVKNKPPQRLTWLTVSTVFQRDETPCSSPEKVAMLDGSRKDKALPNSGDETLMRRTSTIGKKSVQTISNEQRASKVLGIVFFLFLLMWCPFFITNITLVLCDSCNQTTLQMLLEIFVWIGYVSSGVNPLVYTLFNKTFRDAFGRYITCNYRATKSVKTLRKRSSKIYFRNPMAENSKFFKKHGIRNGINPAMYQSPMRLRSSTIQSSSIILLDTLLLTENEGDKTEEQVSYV
Chain of 5-HT2A receptors (P28223 whole entry): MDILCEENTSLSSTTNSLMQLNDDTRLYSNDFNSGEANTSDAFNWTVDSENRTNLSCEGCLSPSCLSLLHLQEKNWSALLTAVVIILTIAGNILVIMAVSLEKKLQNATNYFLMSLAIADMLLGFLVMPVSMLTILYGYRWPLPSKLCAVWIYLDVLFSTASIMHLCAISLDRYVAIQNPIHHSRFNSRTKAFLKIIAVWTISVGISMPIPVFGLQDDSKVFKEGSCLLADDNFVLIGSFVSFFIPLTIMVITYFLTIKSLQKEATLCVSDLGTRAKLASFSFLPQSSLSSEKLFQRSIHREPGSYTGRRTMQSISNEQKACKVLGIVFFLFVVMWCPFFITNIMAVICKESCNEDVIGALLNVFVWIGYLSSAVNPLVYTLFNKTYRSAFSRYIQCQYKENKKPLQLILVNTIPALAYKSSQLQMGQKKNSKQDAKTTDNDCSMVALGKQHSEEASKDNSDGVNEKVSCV

| SMILES | selectivity over 5-HT2A receptors [1] | selectivity over 5-HT2B receptors [2] | pKi [3] |
| --- | --- | --- | --- |
| COc1cc(OC)c(C(=O)CCCCN2CCC3(CC2)NC(=O)NC3=O)cc1NS(=O)(=O)c1ccc(C(F)(F)F)cc1 [RS 102221, 8-[5-(2,4-Dimethoxy-5-(4-trifluoromethylphenylsulphonamido)phenyl-5-oxopentyl]-1,3,8-triazaspiro[4.5]decane-2,4-dione hydrochloride] | 100 fold | 100 fold |  |
| Cl.Cn1ccc2cc(NC(=O)Nc3cccnc3)ccc21 [SB 200646A, N-(1-methyl-5-indolyl)-N′-(3-pyridyl) urea hydrochloride] |  |  | 6.9 |
| Cc1cc2c(cc1Cl)N(C(=O)Nc1ccc(Oc3cccnc3C)nc1)CC2 [SB 242084, 6-chloro-5-methyl-N-{6-[(2-methylpyridin-3-yl)oxy]pyridin-3-yl}indoline-1-carboxamide] | 158 fold | 100 fold |  |
